Source: patent publication US20130072430A1, “METHODS FOR TREATMENT OR PROPHYLAXIS OF KIDNEY OR LIVER DYSFUNCTION” (NPS PHARMACEUTICALS, INC., priority 2010, published 2013)

System: Human patients with short bowel syndrome
Assay: Example 1: kidney diagnostic biomarkers (urea nitrogen, creatinine, GFR) in short bowel syndrome patients, every four weeks for 24 weeks
Format: in vivo
Parameters: CREATININE (RATE BLANKED) Change from Baseline, Median / GFR, Median / GFR Change from Baseline, Median / UREA NITROGEN, Median / UREA NITROGEN Change from Baseline, Median: unit not given here
Conditions: for CREATININE (RATE BLANKED), Median: unit assumed
Method: Human patients with short bowel syndrome were divided into three groups: a control group (16 total individuals) to receive placebo, an experimental group (35 total individuals) to receive teduglutide at 0.05 mg/kg/day throughout the study, and an experimental group (32 total individuals) to receive teduglutide at 0.1 mg/kg/day throughout the study. Patients were treated by subcutaneous injection of placebo or the appropriate dose of teduglutide. As individuals with short bowel syndrome are likely to experience associated liver and kidney disease, known biomarkers of liver and kidney function were monitored every four weeks, for 24 weeks. The liver biomarkers tested included total bilirubin, ALT and AST and ALP. The kidney biomarkers tested included urea nitrogen, creatinine and GFR. Before administration of placebo or teduglutide, diagnostic biomarker levels were tested to establish a baseline for each individual.
To visualize the effect of GLP-2 on the levels of the diagnostic biomarkers, the average change from baseline was calculated for the placebo and teduglutide treated groups for each visit after a baseline was established. The average change from baseline of each group is depicted in FIGS. […]. The numerical figures for each diaanostic biomarker at each time point are depicted in Table 1.
The raw data for this sorting is reproduced in Table 2 below.

[1] = Week 4, range <−5%, teduglutide 0.05 mg/kg/day
[2] = Week 4, range <−5%, teduglutide 0.1 mg/kg/day
[3] = Week 4, range >5%, teduglutide 0.05 mg/kg/day
[4] = Week 4, range >5%, teduglutide 0.1 mg/kg/day
[5] = Week 4, range −5%<= and <=5%, teduglutide 0.05 mg/kg/day
[6] = Week 4, range −5%<= and <=5%, teduglutide 0.1 mg/kg/day
[7] = Week 8, range <−5%, teduglutide 0.05 mg/kg/day
[8] = Week 8, range <−5%, teduglutide 0.1 mg/kg/day
[9] = Week 8, range >5%, teduglutide 0.05 mg/kg/day
[10] = Week 8, range >5%, teduglutide 0.1 mg/kg/day
[11] = Week 8, range −5%<= and <=5%, teduglutide 0.05 mg/kg/day
[12] = Week 8, range −5%<= and <=5%, teduglutide 0.1 mg/kg/day
[13] = Week 12, range <−5%, teduglutide 0.05 mg/kg/day
[14] = Week 12, range <−5%, teduglutide 0.1 mg/kg/day
[15] = Week 12, range >5%, teduglutide 0.05 mg/kg/day

## CC[C@H](C)[C@H](NC(=O)[C@H](Cc1ccccc1)NC(=O)[C@H](CC(=O)O)NC(=O)[C@H](CCCNC(=N)N)NC(=O)[C@H](C)NC(=O)[C@H](C)NC(=O)[C@H](CC(C)C)NC(=O)[C@H](CC(N)=O)NC(=O)[C@H](CC(=O)O)NC(=O)[C@H](CC(C)C)NC(=O)[C@@H](NC(=O)[C@@H](NC(=O)[C@H](CC(N)=O)NC(=O)[C@H](CCSC)NC(=O)[C@H](CCC(=O)O)NC(=O)[C@H](CC(=O)O)NC(=O)[C@H](CO)NC(=O)[C@H](Cc1ccccc1)NC(=O)[C@H](CO)NC(=O)CNC(=O)[C@H](CC(=O)O)NC(=O)CNC(=O)[C@@H](N)Cc1c[nH]cn1)[C@@H](C)O)[C@@H](C)CC)C(=O)N[C@@H](CC(N)=O)C(=O)N[C@@H](Cc1c[nH]c2ccccc12)C(=O)N[C@@H](CC(C)C)C(=O)N[C@H](C(=O)N[C@@H](CCC(N)=O)C(=O)N[C@H](C(=O)N[C@@H](CCCCN)C(=O)N[C@H](C(=O)N[C@H](C(=O)N[C@@H](CC(=O)O)C(=O)O)[C@@H](C)O)[C@@H](C)CC)[C@@H](C)O)[C@@H](C)CC [teduglutide]
0.10 mg/kg/day, DW20
  GFR, Median: 76.1
  UREA NITROGEN Change from Baseline, Mean (SD): −0.0 (1.60)
  UREA NITROGEN Change from Baseline, Median: −0.1
  UREA NITROGEN, Mean (SD): 6.3 (1.91)
  UREA NITROGEN, Median: 6.0
  CREATININE (RATE BLANKED), Median: 88 µmol/L
0.10 mg/kg/day, DW24
  CREATININE (RATE BLANKED) Change from Baseline, Mean (SD): −2.0 (13.18)
  CREATININE (RATE BLANKED) Change from Baseline, Median: 0.0
  CREATININE (RATE BLANKED), Mean (SD): 82.0 (22.35)
  GFR Change from Baseline, Mean (SD): 4.6 (16.73)
  GFR Change from Baseline, Median: 2.3
  GFR, Mean (SD): 82.4 (27.05)
  GFR, Median: 81.1
  UREA NITROGEN Change from Baseline, Mean (SD): −0.2 (1.87)
  UREA NITROGEN Change from Baseline, Median: 0.3
  UREA NITROGEN, Mean (SD): 6.1 (1.98)
  UREA NITROGEN, Median: 5.9
  CREATININE (RATE BLANKED), Median: 81 µmol/L
[1]
  CREATININE (RATE BLANKED) change from baseline: patients in range, n(%): 7(20.0%)
  GFR change from baseline: patients in range, n(%): 13(37.1%)
  UREA NITROGEN change from baseline: patients in range, n(%): 16(45.7%)
[2]
  CREATININE (RATE BLANKED) change from baseline: patients in range, n(%): 12(37.5%)
  GFR change from baseline: patients in range, n(%): 7(21.9%)
  UREA NITROGEN change from baseline: patients in range, n(%): 10(31.3%)
[3]
  CREATININE (RATE BLANKED) change from baseline: patients in range, n(%): 14(40.0%)
  GFR change from baseline: patients in range, n(%): 8(22.9%)
  UREA NITROGEN change from baseline: patients in range, n(%): 7(20.0%)
[4]
  CREATININE (RATE BLANKED) change from baseline: patients in range, n(%): 7(21.9%)
  GFR change from baseline: patients in range, n(%): 14(43.8%)
  UREA NITROGEN change from baseline: patients in range, n(%): 15(46.9%)
[5]
  CREATININE (RATE BLANKED) change from baseline: patients in range, n(%): 9(25.7%)
  GFR change from baseline: patients in range, n(%): 9(25.7%)
  UREA NITROGEN change from baseline: patients in range, n(%): 7(20.0%)
[6]
  CREATININE (RATE BLANKED) change from baseline: patients in range, n(%): 13(40.6%)
  GFR change from baseline: patients in range, n(%): 11(34.4%)
  UREA NITROGEN change from baseline: patients in range, n(%): 7(21.9%)
[7]
  CREATININE (RATE BLANKED) change from baseline: patients in range, n(%): 11(31.4%)
  GFR change from baseline: patients in range, n(%): 9(25.7%)
  UREA NITROGEN change from baseline: patients in range, n(%): 14(40.0%)
[8]
  CREATININE (RATE BLANKED) change from baseline: patients in range, n(%): 8(25.0%)
  GFR change from baseline: patients in range, n(%): 9(28.1%)
  UREA NITROGEN change from baseline: patients in range, n(%): 9(28.1%)
[9]
  CREATININE (RATE BLANKED) change from baseline: patients in range, n(%): 10(28.6%)
  GFR change from baseline: patients in range, n(%): 12(34.3%)
  UREA NITROGEN change from baseline: patients in range, n(%): 10(28.6%)
[10]
  CREATININE (RATE BLANKED) change from baseline: patients in range, n(%): 13(40.6%)
  GFR change from baseline: patients in range, n(%): 9(28.1%)
  UREA NITROGEN change from baseline: patients in range, n(%): 15(46.9%)
[11]
  CREATININE (RATE BLANKED) change from baseline: patients in range, n(%): 8(22.9%)
  GFR change from baseline: patients in range, n(%): 7(20.0%)
  UREA NITROGEN change from baseline: patients in range, n(%): 5(14.3%)
[12]
  CREATININE (RATE BLANKED) change from baseline: patients in range, n(%): 10(31.3%)
  GFR change from baseline: patients in range, n(%): 13(40.6%)
  UREA NITROGEN change from baseline: patients in range, n(%): 7(21.9%)
[13]
  CREATININE (RATE BLANKED) change from baseline: patients in range, n(%): 7(20.0%)
  GFR change from baseline: patients in range, n(%): 15(42.9%)
  UREA NITROGEN change from baseline: patients in range, n(%): 17(48.6%)
[14]
  CREATININE (RATE BLANKED) change from baseline: patients in range, n(%): 9(28.1%)
  GFR change from baseline: patients in range, n(%): 11(34.4%)
  UREA NITROGEN change from baseline: patients in range, n(%): 13(40.6%)
[15]
  CREATININE (RATE BLANKED) change from baseline: patients in range, n(%): 16(45.7%)
  GFR change from baseline: patients in range, n(%): 6(17.1%)
  UREA NITROGEN change from baseline: patients in range, n(%): 6(17.1%)
